Source: the Bradley open melting point set (2014)
“And” between values parts separate entries of the source, which are not always exact repeats. Equal values may be shown once.

melting point	SMILES
7 °C	Cc1ccccc1Cc1ccccc1 [2-methyldiphenylmethane]
59 °C	Cc1ccccc1NC=O [2-methylformanilide]
-89 °C	Cc1ccco1 [2-methylfuran]
129 °C	Cc1cc(O)ccc1O [2-methylhydroquinone]
-46 °C	CC(C)C(=O)O [2-methylpropanoic_acid]
120 °C	Cc1c(O)cccc1O [2-methylresorcinol]
103 °C	CCCc1c(O)cccc1O [2-n-propylresorcinol]
122 °C	c1ccc(-c2nc3ccccc3nc2-c2ccc3ccccc3c2)cc1 [2-naphthalen-2-yl-3-phenylquinoxaline]
267 °C	OB(O)c1ccc2ccccc2c1 [2-naphthaleneboronic acid]
100 °C	Nc1cc(C(F)(F)F)ccc1[N+](=O)[O-] [2-nitro-5-(trifluoromethyl)aniline]
148 °C	O=C(O)c1ccccc1[N+](=O)[O-] [2-nitrobenzoic acid]
49 °C	O=C(O)CC1CCCC1=O (configuration not stated) [2-oxocyclopentylacetic acid]
116 °C	O=C(O)CCC(=O)C(=O)O [2-oxopentanedioic acid]
-78 °C	CCCC(C)=O [2-pentanone]
58 °C	O=C1CCCCC1c1ccccc1 (configuration not stated) [2-phenylcyclohexanone]
-5 °C	CC(C(=O)O)c1ccccc1 (configuration not stated) [2-phenylpropionic acid]
-70 °C	Cc1ccccn1 [2-picoline]
-88 °C	CC(C)O [2-propanol]
186 °C	O=C1C(c2ccccn2)=Nc2ccccc21 [2-pyridin-2-yl-3H-indol-3-one]
10 °C	CCC(C)c1ccccc1O (configuration not stated) [2-sec-butylphenol]
52 °C	Cc1ccc(O)c(C(C)(C)C)c1 [2-tert-butyl-4-methylphenol]
30 °C	CCCCCCCCCCCC(C)=O [2-tridecanone]
12 °C	CCCCCCCCCC(C)=O [2-undecanone]
141 °C	O=C1C=C(NCCNc2ccccc2)C(=O)c2ccccc21 [2-{[2-(phenylamino)ethyl]amino}naphthalene-1,4-dione]
8 °C	CC(=O)c1cccc(Br)c1 [3'-bromoacetophenone]
150 °C	Nc1cccc(C(=O)c2cccc(N)c2)c1 [3,3'-diaminobenzophenone]

melting point	SMILES
-78 °C	C#CC(C)(C)C [3,3-Dimethylbut-1-yne]
-78 °C	C#CC(C)(C)C [3,3-dimethyl-1-butyne] [listing 1 of 2 here]
-78 °C	C#CC(C)(C)C [3,3-dimethyl-1-butyne] [listing 2 of 2 here]
286 °C	O=c1c(O)c(-c2ccc(O)cc2)oc2ccccc12 [3,4'-dihydroxyflavone]
245 °C	COc1cc(B(O)O)cc(OC)c1OC [3,4,5-trimethoxybenzeneboronic acid]
82 °C	COC1CC(C(=O)Cl)CC(OC)C1OC (configuration not stated) [3,4,5-trimethoxycyclohexanecarbonyl chloride]
146 °C	COc1cc(O)cc(OC)c1OC [3,4,5-trimethoxyphenol]
154 °C	O=Cc1ccc(O)c(O)c1 [3,4-Dihydroxybenzaldehyde]
44 °C	O=Cc1ccc(Cl)c(Cl)c1 [3,4-dichlorobenzaldehyde]
195 °C	O=C(O)/C=C/c1ccc(F)c(F)c1 [3,4-difluorocinnamic acid]
79 °C	Nc1ccc2c(c1)OCCCO2 [3,4-dihydro-2h-1,5-benzodioxepin-7-amine]
188 °C	O=C(O)CC1Sc2ccccc2NC1=O (configuration not stated) [3,4-dihydro-3-oxo-2h-1,4-benzothiazine-2-acetic acid]
51 °C	COc1ccc(C(C)=O)cc1OC [3,4-dimethoxyacetophenone]
240 °C	COc1ccc(B(O)O)cc1OC [3,4-dimethoxybenzeneboronic acid]
102 °C	Cc1ccc(C(N)=O)cc1C [3,4-dimethylbenzamide]
220 °C	Cc1ccc(B(O)O)cc1C [3,4-dimethylbenzeneboronic acid]
-8 °C	CC1=CC(=O)CC(C)(C)C1 [3,5,5-Trimethylcyclohex-2-en-1-one]
68 °C	O=Cc1cc(Cl)cc(Cl)c1 [3,5-Dichlorobenzaldehyde]
188 °C	CC(C)(C)c1cc(C=O)cc(C(C)(C)C)c1O [3,5-di-tert-butyl-4-hydroxybenzaldehyde]
220 °C	O=C(O)c1cc(Br)cc(Br)c1 [3,5-dibromobenzoic acid]
57 °C	Cc1ccc(C(=O)c2cc(Cl)cc(Cl)c2)c(C)c1 [3,5-dichloro-2',4'-dimethylbenzophenone]
32 °C	O=S(=O)(Cl)c1cc(Cl)cc(Cl)c1 [3,5-dichlorobenzenesulfonyl chloride]
66 °C	N#Cc1cc(Cl)cc(Cl)c1 [3,5-dichlorobenzonitrile]
26 °C	O=C(Cl)c1cc(Cl)cc(Cl)c1 [3,5-dichlorobenzoyl chloride]
114 °C	COc1c(F)cc(F)cc1B(O)O [3,5-difluoro-2-methoxybenzeneboronic acid]
136 °C	O=C(O)C(O)c1cc(F)cc(F)c1 (configuration not stated) [3,5-difluoromandelic acid]

melting point	SMILES
156 °C	COc1cc(C(=O)NN)cc(OC)c1O [3,5-dimethoxy-4-hydroxybenzhydrazide]
34 °C	COc1cc(OC)cc(C(C)=O)c1 [3,5-dimethoxyacetophenone]
46.3 °C	COc1cc(C=O)cc(OC)c1 [3,5-dimethoxybenzaldehyde]
47 °C	COc1cc(O)cc(OC)c1 [3,5-dimethoxyphenol]
9 °C	Cc1cc(C)cc(C=O)c1 [3,5-dimethylbenzaldehyde]
236 °C	Cc1cc(C)cc(B(O)O)c1 [3,5-dimethylbenzeneboronic acid]
107 °C	Cc1noc(C)c1B(O)O [3,5-dimethylisoxazole-4-boronic acid]
63.4 °C and 65.5 °C	Cc1cc(C)cc(O)c1 [3,5-dimethylphenol]
68 °C	Clc1ccc(Cl)nn1 [3,6-dichloropyridazine]
210 °C	Cc1cc(O)c(C)c(=O)o1 [3,6-dimethyl-4-hydroxy-2-pyrone]
59 °C	O=CC(=Cc1ccco1)c1ccccc1 [3-(2-furyl)-2-phenylpropenal]
158 °C	CN(C)C(=O)Nc1ccc(Cl)c(Cl)c1 [3-(3,4-dichlorophenyl)-1,1-dimethylurea]
160 °C	COc1ccc(C(=O)CCC(=O)O)cc1OC [3-(3,4-dimethoxybenzoyl)propionic acid]
112 °C	O=C(O)CCc1cccc(O)c1 [3-(3-hydroxyphenyl)propionic acid]
147 °C	O=C(O)CCC(=O)c1ccc(Br)cc1 [3-(4-bromobenzoyl)propionic acid]
290 °C	O=C(O)CCc1ccc(C(=O)O)cc1 [3-(4-carboxyphenyl)propionic acid]
101 °C	N#CC(=Cc1ccc(Cl)cc1)C(N)=O [3-(4-chlorophenyl)-2-cyanoacrylamide]
126 °C	Cc1ccc(C(=O)CCC(=O)O)cc1 [3-(4-methylbenzoyl)propionic acid]
83 °C	CN(C)c1cccc(O)c1 [3-(Dimethylamino)phenol]
277 °C	O=S(=O)(O)CCCN1CCOCC1 [3-(Morpholin-4-yl)propane-1-sulfonic acid]
96 °C	OCc1cccc(B(O)O)c1 [3-(hydroxymethyl)benzeneboronic acid]
136 °C	COC(=O)c1cccc(B(O)O)c1 [3-(methoxycarbonyl)benzeneboronic acid]
103 °C	O=C1OC(Sc2ccccc2)c2ccccc21 (configuration not stated) [3-(phenylsulfanyl)-2-benzofuran-1(3H)-one]
80 °C	OB(O)c1cccc(OC(F)(F)F)c1 [3-(trifluoromethoxy)benzeneboronic acid]
164 °C	OB(O)c1cccc(C(F)(F)F)c1 [3-(trifluoromethyl)benzeneboronic acid]

SMILES	melting point
Nc1ccccc1[N+](=O)[O-] [2-nitroaniline]	72 °C
O=[N+]([O-])c1ccccc1O [2-nitrophenol]	44.8 °C and 44.5 °C and 44 °C
O=C1CCCN1 [2-pyrrolidinone]	24 °C
Nc1cccc(Cc2cccc(N)c2)c1 [3,3'-diaminodiphenylmethane]	82 °C
COc1cc(C(=O)O)cc(OC)c1OC [3,4,5-trimethoxybenzoic acid]	170 °C
Cc1ccc(N)c(N)c1 [3,4-diaminotoluene]	88 °C
ClCc1ccc(Cl)c(Cl)c1 [3,4-dichlorobenzyl chloride]	-3 °C
Oc1ccc(Cl)c(Cl)c1 [3,4-dichlorophenol]	68 °C and 66 °C
COc1ccc(/C=C/[N+](=O)[O-])cc1OC [3,4-dimethoxy-beta-nitrostyrene]	140 °C
COc1ccc(C=O)cc1OC [3,4-dimethoxybenzaldehyde]	44 °C
COc1ccc(C(=O)O)cc1OC [3,4-dimethoxybenzoic acid]	181 °C
O=C(O)c1cc([N+](=O)[O-])cc([N+](=O)[O-])c1 [3,5-Dinitrobenzoic acid]	206 °C
Nc1cc(Cl)cc(Cl)c1 [3,5-dichloroaniline]	53 °C
N#Cc1cc(I)c(O)c(I)c1 [3,5-diiodo-4-hydroxybenzonitrile]	204 °C
O=C(O)c1cc([N+](=O)[O-])cc([N+](=O)[O-])c1 [3,5-dinitrobenzoic acid]	206 °C
O=C(O)c1cc([N+](=O)[O-])cc([N+](=O)[O-])c1O [3,5-dinitrosalicylic acid]	171 °C
O=NN1CN2CN(C1)CN(N=O)C2 [3,7-Dinitroso-1,3,5,7-tetraazabicyclo[3.3.1]nonane]	207 °C
CC12CCC3C(CCC4CC(OCc5ccccc5)CCC43C)C1CCC2=O (configuration not stated) [3-(benzyloxy)androstan-17-one]	220 °C
Cc1cc(C)c(C)c(CCl)c1C [3-(chloromethyl)-1,2,4,5-tetramethylbenzene]	70.5 °C
Nc1cccc(C(F)(F)F)c1 [3-(trifluoromethyl)aniline]	6 °C
